{"source": "paper PMC6105827", "about": "“Antitrypanosomal 8-Hydroxy-Naphthyridines Are Chelators of Divalent Transition Metals” (Antimicrobial Agents and Chemotherapy, 2018)", "key": {"[1]": {"tested_on": "Tb927.11.1910 knockdown bloodstream trypanosomes", "experiment": "Drug sensitivity of Tb927.11.1910 RNAi knockdown trypanosomes", "format": "cell-based", "conditions": "Trypanosoma brucei, read-out: EC50, Tb927.11.1910 knockdown", "description": "(§1) Stem-loop RNAi constructs were assembled as described previously ([54], [62]). PCR primers were designed by using RNAit software ([63]). For HL2 (Tb927.11.15050), primers HL2FW and HL2RV were used to generate a 533-bp gene fragment, and for HL3 (Tb927.11.1910), primers HL3FW and HL3RV were used to generate a 513-bp gene fragment. The accuracy of all assembled constructs was verified by sequencing. Assembled constructs were linearized by using AscI prior to transfection into bloodstream T. brucei 2T1 parasites ([62]). In addition to phleomycin (1 μg ml^−1), trypanosomes maintaining successfully integrated vectors were selected using hygromycin (2.5 μg ml^−1) and confirmed to be puromycin (2 μg ml^−1) resistant. To generate C-terminal 12×Myc tagging vectors for Tb927.11.15050 (Myc1) and Tb927.11.1910 (Myc2), primers Myc1FW and Myc1RV and primers Myc2FW and Myc2RV were used to generate 924-bp and 1,095-bp fragments, respectively. Fragments were inserted into the pNATx^12xMyc construct ([54]) via HindIII and XbaI restriction sites. The accuracy of the assembled constructs was verified by sequencing, and the constructs were linearized with the restriction endonuclease MfeI prior to transfection into the above-described HL2 and HL3 trypanosomes. Trypanosomes maintaining successfully integrated vectors were selected with blasticidin (1 μg ml^−1)."}, "[2]": {"tested_on": "L. donovani promastigotes", "experiment": "L. donovani promastigote compound sensitivity assay (with/without metal salts)", "procedure": "(§2) The clonal Leishmania donovani cell line LdBOB (derived from MHOM/SD/62/1S-CL2D) was grown as promastigotes at 28°C, as described previously ([53]). Bloodstream-form T. brucei MiTat 1.2 clone 221a and its derived subline, 2T1, were cultured at 37°C in the presence of 5% CO2 in HMI9-T medium, as described previously ([54]). The human carcinoma HepG2 cell line was grown at 37°C with 5% CO2 in minimal Eagle's medium (MEM) with GlutaMAX (1×; Sigma-Aldrich), nonessential amino acids (Sigma-Aldrich), and 10% FBS. Human HepG2 and THP-1 cells used in this study were ethically sourced from the ATCC.\n(§3) L. donovani intramacrophage ([7]), HepG2 ([55]), T. brucei ([56]), and L. donovani promastigote ([57]) compound sensitivity assays were carried out as described previously. Human HepG2 and THP-1 cells used in these assays were provided by the ATCC. Data were processed by using GRAFIT (version 5.0.4; Erithacus Software) and fitted to a 2-parameter equation to obtain the effective concentration inhibiting growth by 50% (EC50). Data are presented as the means of results from at least two independent experiments.\n(§4) In the first instance, the maximum tolerated concentrations of ZnCl2, CaCl2, CuCl2, MgCl2, MnCl2, and FeCl2 were determined for each cell type. […] Standard drug sensitivity assays were carried out (as described above) for each cell type with compounds 1, 2, and 3 in the presence and absence of the maximum tolerated concentration of metal salt."}, "[3]": {"tested_on": "T. brucei bloodstream forms", "experiment": "microbe, parasite or virus in culture", "procedure": "as §2, §3, §4"}, "THP-1 cells": {"tested_on": "THP-1 cells", "experiment": "THP-1 cell sensitivity", "format": "cell-based", "conditions": "Homo sapiens", "procedure": "as §3"}, "[4]": {"tested_on": "L. donovani promastigotes", "experiment": "Measurement of 8-HNT compound uptake by UPLC-MS/MS", "format": "cell-based, Leishmania donovani", "conditions": "5 μM, 30 min", "procedure": "Triplicate samples of the culture (2 × 10^7 cells; 1 ml) were harvested by centrifugation at 16,000 × g for 5 min. The supernatant (200 μl) was collected from each centrifuged sample, transferred to a fresh Eppendorf tube, and terminated by the addition of 400 μl acetonitrile (supernatant fraction). The remaining supernatant was discarded, and acetonitrile (60 μl) was added to each pellet fraction. Finally, 400 μl acetonitrile was added to 200 μl of culture (equivalent of 4 × 10^6 cells) (total fraction). All fractions were then centrifuged at 16,000 × g for 10 min and diluted as required with MilliQ water. All samples were analyzed in triplicate on a Waters Acquity UPLC instrument coupled to a Waters micro TQs mass spectrometer. Chromatographic separation was achieved by using a Waters BEH (bridged ethylene hybrid) C18 column (1.7-μm particle size, 2.1 by 50 mm), with a flow rate of 0.6 ml min^−1, an injection volume of 0.2 μl, and the following 2-min gradient: 95% mobile phase A initially, with holding for 0.3 min before decreasing to 5% mobile phase A over the next minute and holding for a further 0.49 min before returning to 95% mobile phase A. Mobile phase A was water plus 0.1% formic acid, and mobile phase B was methanol plus 0.1% formic acid. […]"}, "[5]": {"tested_on": "Tb927.11.15050 knockdown bloodstream trypanosomes", "experiment": "Drug sensitivity of Tb927.11.15050 RNAi knockdown trypanosomes", "format": "cell-based, Trypanosoma brucei", "conditions": "induced vs uninduced RNAi knockdown", "description": "as §1"}, "[6]": {"tested_on": "L. donovani intramacrophage amastigotes", "experiment": "L. donovani intramacrophage compound sensitivity assay", "format": "cell-based", "conditions": "Leishmania donovani, read-out: Intra-macrophage EC50", "procedure": "as §3"}, "HepG2 cells": {"tested_on": "HepG2 cells", "experiment": "HepG2 compound sensitivity assay (with/without ZnCl2)", "conditions": "Homo sapiens, HepG2, read-out: HepG2 EC50", "procedure": "as §2, §3, §4"}}, "note": "Like-named read-outs stand apart in the source and are kept apart here.", "data": [{"smiles": "Cc1nnc(-c2nc(NCc3ccc(Cl)cc3)c3cccnc3c2O)[nH]1", "note": "[Compound 1]", "values": [{"measurement": "EC50", "setting": "[1]", "value": "600 ± 50", "unit": "nM"}, {"measurement": "EC50", "setting": "[2]; Leishmania donovani, read-out: EC50 values, WT, promastigotes, absence of cation, FeCl2 experiment", "value": "800 ± 30", "unit": "nM"}, {"measurement": "EC50", "setting": "[2]; Leishmania donovani, read-out: EC50 values, WT, promastigotes, absence of cation, ZnCl2 experiment", "value": "800 ± 10", "unit": "nM"}, {"measurement": "EC50", "setting": "[2]; Leishmania donovani, read-out: L. donovani pro EC50, promastigotes (Fig. 1)", "value": 760, "unit": "nM"}, {"measurement": "Shift", "setting": "[2]; promastigotes, FeCl2 (100 μM) vs WT", "value": 2.0, "unit": "fold"}, {"measurement": "Shift", "setting": "[2]; promastigotes, ZnCl2 (100 μM) vs WT", "value": 11.0, "unit": "fold"}, {"measurement": "Shift", "setting": "[2]; promastigotes, ZnCl2 (100 μM) vs WT, listed as compound 1", "value": 11, "unit": "fold"}, {"measurement": "EC50", "setting": "[2]; read-out: EC50 values, WT, promastigotes, absence of cation, FeCl2 experiment", "value": "780 ± 30", "unit": "nM"}, {"measurement": "Shift (fold)", "setting": "[3]; CaCl2 (3 mM) vs WT", "value": 1.1, "unit": "fold"}, {"measurement": "Shift (fold)", "setting": "[3]; CuCl2 (5 μM) vs WT", "value": 1.1, "unit": "fold"}, {"measurement": "Shift (fold)", "setting": "[3]; FeCl2 (10 μM) vs WT", "value": 8.0, "unit": "fold"}, {"measurement": "Shift (fold)", "setting": "[3]; FeCl2 (10 μM) vs WT, listed as compound 1", "value": 8, "unit": "fold"}, {"measurement": "Shift (fold)", "setting": "[3]; MgCl2 (1 mM) vs WT", "value": 1.1, "unit": "fold"}, {"measurement": "Shift (fold)", "setting": "[3]; MnCl2 (10 μM) vs WT", "value": 1.0, "unit": "fold"}, {"measurement": "EC50", "setting": "[3]; Trypanosoma brucei, read-out: EC50, wild-type [WT] trypanosomes", "value": "850 ± 50", "unit": "nM"}, {"measurement": "EC50", "setting": "[3]; Trypanosoma brucei, read-out: Mean EC50 ± SD, Plus cation, plus CaCl2 (3 mM)", "value": "400 ± 100", "unit": "nM"}, {"measurement": "EC50", "setting": "[3]; Trypanosoma brucei, read-out: Mean EC50 ± SD, Plus cation, plus CuCl2 (5 μM)", "value": "400 ± 5", "unit": "nM"}, {"measurement": "EC50", "setting": "[3]; Trypanosoma brucei, read-out: Mean EC50 ± SD, Plus cation, plus MgCl2 (1 mM)", "value": "400 ± 30", "unit": "nM"}, {"measurement": "EC50", "setting": "[3]; Trypanosoma brucei, read-out: Mean EC50 ± SD, Plus cation, plus MnCl2 (10 μM)", "value": "400 ± 20", "unit": "nM"}, {"measurement": "EC50", "setting": "[3]; Trypanosoma brucei, read-out: Mean EC50 ± SD, WT, absence of cation, CaCl2 experiment", "value": "300 ± 800", "unit": "nM"}, {"measurement": "EC50", "setting": "[3]; Trypanosoma brucei, read-out: Mean EC50 ± SD, WT, absence of cation, CuCl2 experiment", "value": "300 ± 80", "unit": "nM"}, {"measurement": "EC50", "setting": "[3]; Trypanosoma brucei, read-out: Mean EC50 ± SD, WT, absence of cation, FeCl2 experiment", "value": "220 ± 10", "unit": "nM"}, {"measurement": "EC50", "setting": "[3]; Trypanosoma brucei, read-out: Mean EC50 ± SD, WT, absence of cation, MgCl2 experiment", "value": "400 ± 10", "unit": "nM"}, {"measurement": "EC50", "setting": "[3]; Trypanosoma brucei, read-out: Mean EC50 ± SD, WT, absence of cation, MnCl2 experiment", "value": "400 ± 10", "unit": "nM"}, {"measurement": "EC50", "setting": "[3]; Trypanosoma brucei, read-out: Mean EC50 ± SD, WT, absence of cation, ZnCl2 experiment", "value": "360 ± 90", "unit": "nM"}, {"measurement": "EC50", "setting": "[3]; Trypanosoma brucei, read-out: T. brucei bsf EC50, bloodstream form (Fig. 1)", "value": 320, "unit": "nM"}, {"measurement": "Shift (fold)", "setting": "[3]; ZnCl2 (200 μM) vs WT", "value": 8.0, "unit": "fold"}, {"measurement": "Shift (fold)", "setting": "[3]; ZnCl2 (200 μM) vs WT, listed as compound 1", "value": 8, "unit": "fold"}, {"measurement": "EC50", "setting": "[3]; read-out: Mean EC50 ± SD, WT, absence of cation, FeCl2 experiment", "value": "200 ± 10", "unit": "nM"}, {"measurement": "EC50", "setting": "[3]; read-out: Mean EC50 ± SD, WT, absence of cation, ZnCl2 experiment", "value": "350 ± 10", "unit": "nM"}, {"measurement": "EC50", "setting": "THP-1 cells", "value": "> 50000", "unit": "nM"}, {"measurement": "Accumulation within cells relative to supernatant (equivalent Kp values)", "setting": "[4]; 4°C", "value": "29 ± 13", "unit": "times"}, {"measurement": "Accumulation within cells relative to supernatant (equivalent Kp values)", "setting": "[4]; 37°C", "value": "296 ± 69", "unit": "times"}, {"measurement": "Increase in EC50 on knockdown of Tb927.11.15050", "setting": "[5]", "value": "> 3", "unit": "fold"}, {"measurement": "EC50", "setting": "[6]", "value": 2100, "unit": "nM"}, {"measurement": "EC50", "setting": "HepG2 cells", "value": 10400, "unit": "nM"}]}]}
